Some test systems named below: 786-0; CAKI-1; CCRF-CEM; EKVX; HCT-116; HCT-15; HOP-62; HT-29; Hs-578T; IGROV-1; K562; MCF7; Malme-3M; NCI/ADR-RES; PC-3; TK-10; UACC-62; UO-31; SNB-75; SR.
Common to all, as to assay: NCI-60 cell line screen, 48 h

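These data come from cells grown in 96-well plates and exposed to compound for 48 hours at five concentrations. GI50 marks 50% less growth.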 Calls of active or inactive are those of the source. Cut-off read from the data, not from the text of the source: active = GI50 up to about 1.1 µM and inactive = higher.

For the compound `Cc1ccc2oc3c(c(Br)c(Br)n3C)c(=O)c2c1`, the GI50 with 786-0 was 16.7 µM (inactive); with CAKI-1, 28.4 µM (inactive); with CCRF-CEM it was > 100 µM (inactive); in the test on EKVX it was 10.4 µM (inactive); in the test on HCT-116, 15.7 µM (inactive); in the test on HCT-15, greater than 100 µM. Moreover, the GI50 is 17 µM (inactive) in the test on HOP-62; 91.8 µM (inactive) in the test with HT-29; 18.5 µM (inactive) in the test on Hs-578T; 10.5 µM (inactive) in the test on IGROV-1; > 100 µM (inactive) in the test with K562; 90.6 µM (inactive) in the test with MCF7. Further, the GI50 in the test with Malme-3M is 24.7 µM (inactive); in the test on NCI/ADR-RES, 20.4 µM (inactive); in the test on PC-3, 35 µM (inactive); with TK-10, 19 µM (inactive); in the test on UACC-62, 19.6 µM (inactive); with UO-31, 13.9 µM (inactive).
As to `COc1cc2oc(-c3ccc(O)cc3)cc(=O)c2c(OC)c1O`, the GI50 in the test with 786-0 is 36 µM (inactive); in the test on CAKI-1 it was > 100 µM (inactive); in the test on CCRF-CEM, > 100 µM (inactive); in the test on EKVX, > 100 µM (inactive); with HCT-116 it was 54 µM (inactive); in the test on HCT-15, 92.7 µM. Besides, the GI50 in the test on HOP-62 was 29.2 µM (inactive); in the test with HT-29, > 100 µM (inactive); in the test with Hs-578T, 58.5 µM (inactive); in the test with IGROV-1 it was 57.3 µM (inactive); with K562, 60.5 µM (inactive); with MCF7, > 100 µM (inactive). For the same compound, the GI50 in the test with Malme-3M is > 100 µM (inactive); with NCI/ADR-RES, > 100 µM (inactive); with SNB-75 it was 14.5 µM (inactive); in the test on TK-10, 51.4 µM (inactive); in the test with UACC-62 it was 99.5 µM (inactive); in the test on UO-31, 33.2 µM (inactive).
`Clc1ccc2[nH]c(CC3CCCC3)nc2c1`: the GI50 in the test on 786-0 was 16.6 µM (inactive); with CAKI-1, 3.31 µM (inactive); in the test with CCRF-CEM it was 26.2 µM (inactive); with EKVX, 17.5 µM (inactive); in the test with HCT-116, 16.1 µM (inactive); in the test on HCT-15 it was 6.87 µM. In addition, the GI50 is 15.6 µM (inactive) in the test with HOP-62; 12.2 µM (inactive) in the test with HT-29; 4.29 µM (inactive) in the test on IGROV-1; 3.14 µM (inactive) with K562; 6.61 µM (inactive) in the test on MCF7; 25.5 µM (inactive) with Malme-3M. Also, the GI50 in the test on NCI/ADR-RES was 13.8 µM (inactive); in the test on PC-3, 20.1 µM (inactive); in the test on SNB-75 it was 24.4 µM (inactive); in the test on SR, 2.45 µM (inactive); in the test with TK-10 it was 28.5 µM (inactive); with UACC-62, 15.8 µM (inactive).
As to `COc1c(-c2nc3ccc(N4CCN(C)CC4)nc3[nH]2)cc(OC)c2c1nc(COC(C)=O)n2C`, the GI50 in the test on 786-0 was > 100 µM (inactive); in the test on CAKI-1, > 100 µM (inactive); with EKVX, > 100 µM (inactive); with HCT-116 it was 86.3 µM (inactive); in the test with HCT-15, greater than 100 µM; in the test on HOP-62, > 100 µM (inactive). Besides, the GI50 in the test with HT-29 is 56.1 µM (inactive); in the test with Hs-578T, > 100 µM (inactive); in the test on IGROV-1, > 100 µM (inactive); with K562, > 100 µM (inactive); in the test with MCF7, 65.3 µM (inactive); with Malme-3M, > 100 µM (inactive). For the same compound, the GI50 in the test on NCI/ADR-RES is > 100 µM (inactive); in the test with PC-3, 94.8 µM (inactive); in the test with TK-10, < 0.01 µM (active); in the test on UACC-62, > 100 µM (inactive); in the test with UO-31 it was > 100 µM (inactive).
`O=C(O)CCSc1nnc(COc2ccc(Cl)cc2)n1-c1ccccc1`: the GI50 with 786-0 is > 100 µM (inactive); in the test with CAKI-1 it was > 100 µM (inactive); in the test on CCRF-CEM, 95.3 µM (inactive); in the test with EKVX, > 100 µM (inactive); in the test with HCT-116, > 100 µM (inactive); in the test with HCT-15, greater than 100 µM. For the same compound, the GI50 in the test with HOP-62, with HT-29, with IGROV-1, in the test with K562, with MCF7 and with Malme-3M was > 100 µM (inactive) throughout. Besides, the GI50 in the test with NCI/ADR-RES, with PC-3, in the test on SNB-75, in the test on TK-10, in the test with UACC-62 and in the test on UO-31 was > 100 µM (inactive) throughout.
For `CC1=CCC[C@H]2[C@](C)(CC3=CC(=O)C4SCCSC4C3=O)[C@@H](C)CC[C@]12C` (stereo partly specified), the GI50 was 18.5 µM (inactive) with 786-0; 25.2 µM (inactive) in the test on CAKI-1; 11 µM (inactive) in the test with CCRF-CEM; 21.3 µM (inactive) in the test on EKVX; 13.8 µM (inactive) in the test on HCT-116; 23.3 µM in the test with HCT-15. The GI50 was 15 µM (inactive) in the test with HOP-62; 32 µM (inactive) in the test on IGROV-1; 19.9 µM (inactive) in the test on K562; 20.5 µM (inactive) with MCF7; 19.1 µM (inactive) with NCI/ADR-RES; 13.5 µM (inactive) with PC-3. Further, the GI50 in the test on SNB-75 is 27.7 µM (inactive); in the test with SR it was 11.1 µM (inactive); in the test with UACC-62 it was 14.8 µM (inactive); in the test on UO-31, 17.6 µM (inactive).
As for `OC[C@H](O)[C@@H](OCc1ccccc1)[C@H](NCc1ccccc1)c1cccs1`, the GI50 in the test on 786-0 is > 100 µM (inactive); in the test with CAKI-1 it was > 100 µM (inactive); in the test with CCRF-CEM, > 100 µM (inactive); with EKVX, > 100 µM (inactive); in the test with HCT-116, 99.5 µM (inactive); with HCT-15, greater than 100 µM. Also, the GI50 in the test with HOP-62 was > 100 µM (inactive); in the test on HT-29 it was 60 µM (inactive); in the test with IGROV-1, 75.5 µM (inactive); in the test with K562, > 100 µM (inactive); in the test with MCF7, > 100 µM (inactive); in the test on Malme-3M, > 100 µM (inactive). Moreover, the GI50 with NCI/ADR-RES is > 100 µM (inactive); in the test on PC-3, 98.4 µM (inactive); in the test on SNB-75, 65.3 µM (inactive); in the test on SR, > 100 µM (inactive); with TK-10 it was > 100 µM (inactive); in the test on UACC-62 it was > 100 µM (inactive). In addition, the GI50 in the test on UO-31 was 15.5 µM (inactive).
On to `O=C(O)c1cccc(S(=O)(=O)NN2C(=O)CSC2c2ccccc2Cl)c1` (stereo unspecified), for which the GI50 in the test with 786-0 is > 100 µM (inactive); with CAKI-1, > 100 µM (inactive); with CCRF-CEM it was > 100 µM (inactive); in the test with EKVX, > 100 µM (inactive); in the test on HCT-116, > 100 µM (inactive); with HCT-15, greater than 100 µM. For the same compound, the GI50 with HOP-62, with HT-29, in the test on Hs-578T, in the test with IGROV-1, with K562 and in the test on MCF7 was > 100 µM (inactive) throughout. Besides, the GI50 in the test on Malme-3M was > 100 µM (inactive); in the test with PC-3, > 100 µM (inactive); in the test on SNB-75, > 100 µM (inactive); in the test on SR, 4.09 µM (inactive); in the test on TK-10, > 100 µM (inactive); in the test with UACC-62, > 100 µM (inactive). For the same compound, in the test with UO-31, the GI50 was > 100 µM (inactive).
Turning to `CCCN1CCC(=O)N(CCC(F)(F)C(F)(F)C(F)(F)C(F)(F)C(F)(F)C(F)(F)F)C1=S`, the GI50 with 786-0, in the test on CAKI-1, in the test on CCRF-CEM, in the test on EKVX, with HCT-116 and in the test on HOP-62 was > 100 µM (inactive) each time. Also, the GI50 with HT-29 was 90.6 µM (inactive); in the test on Hs-578T, > 100 µM (inactive); with IGROV-1, > 100 µM (inactive); in the test with K562, > 100 µM (inactive); with MCF7, > 100 µM (inactive); in the test on Malme-3M it was > 100 µM (inactive). Also, the GI50 in the test on PC-3, in the test with SNB-75, in the test with SR, in the test with TK-10, with UACC-62 and in the test with UO-31 was > 100 µM (inactive) in each case.
In the case of `Cc1ccsc1C(=S)Nc1ccc(Cl)c(C(=O)OC(C(C)C)C(C)C)c1`, the GI50 with 786-0 is 19.8 µM (inactive); with CAKI-1 it was 19.5 µM (inactive); in the test with CCRF-CEM, 5.62 µM (inactive); with EKVX, 23.2 µM (inactive); with HCT-116, 12.1 µM (inactive); with HCT-15 it was 23.6 µM. Besides, the GI50 was 17.4 µM (inactive) in the test on HT-29; 39.4 µM (inactive) in the test on Hs-578T; 32.3 µM (inactive) with IGROV-1; 3.97 µM (inactive) in the test with K562; 16.1 µM (inactive) in the test on MCF7; 13.6 µM (inactive) in the test with NCI/ADR-RES. The GI50 in the test on PC-3 was 8.53 µM (inactive); with SNB-75 it was 24 µM (inactive); with TK-10, 38.1 µM (inactive); in the test with UACC-62 it was 21 µM (inactive); in the test with UO-31, 13.1 µM (inactive).
Consider `CCOC(=O)c1cc2c3c(c(C(C)=O)c(OC)c2[nH]1)N(C(=O)CC)CC3`, for which the GI50 in the test with 786-0 is 17.5 µM (inactive); in the test on CAKI-1 it was 14.9 µM (inactive); in the test with CCRF-CEM it was 13.7 µM (inactive); in the test with EKVX it was 11.4 µM (inactive); in the test with HCT-116, 14.4 µM (inactive); in the test with HCT-15, 16.5 µM. Further, the GI50 in the test with HOP-62 was 25.1 µM (inactive); with HT-29, 16.6 µM (inactive); in the test with Hs-578T it was 19.4 µM (inactive); in the test with IGROV-1, 13.6 µM (inactive); with K562, 14.1 µM (inactive); in the test with MCF7, 14.5 µM (inactive). Also, the GI50 in the test with Malme-3M is 12.6 µM (inactive); in the test with NCI/ADR-RES it was 13.4 µM (inactive); in the test on PC-3 it was 23.3 µM (inactive); in the test on SNB-75, 20.7 µM (inactive); with UACC-62, 16.3 µM (inactive); in the test on UO-31, 12.7 µM (inactive).
